Here are results for 28 molecules from patent US8487103B2 (Roche Palo Alto LLC, priority 2009, dated 2013).

Counter-ions that a name gives are not always drawn.

In this test the target is T1, HCV polymerase (NS5B570n-Con1) (Hepatitis C virus genotype 1b, UniProt Q9WMX2).
T1 construct: contains a 21 amino acid deletion at the C-terminus relative to the full-length HCV polymerase; 6-histidine (N); made in house; host or cells: E. coli BL21(DE) pLysS, plasmid pET 17b
Kind of test: HCV NS5B RNA Polymerase Activity. Format: biochemical, HCV Con1 strain. As to the method:
The enzymatic activity of HCV polymerase (NS5B570n-Con1) was measured as the incorporation of radiolabeled nucleotide monophosphates into acid insoluble RNA products. Unincorporated radiolabeled substrate was removed by filtration and scintillant was added to the washed and dried filter plate containing radiolabeled RNA product. The amount of RNA product generated by NS5B570-Con1 at the end of the reaction was directly proportional to the amount of light emitted by the scintillant.
The N-terminal 6-histidine tagged HCV polymerase, derived from HCV Con1 strain, genotype 1b (NS5B570n-Con1) contains a 21 amino acid deletion at the C-terminus relative to the full-length HCV polymerase and was purified from E. coli strain BL21(DE) pLysS. The construct, containing the coding sequence of HCV NS5B Con1 (GenBank accession number AJ242654) was inserted into the plasmid construct pET 17b, downstream of a T7 promoter expression cassette and transformed into E. coli. A single colony was grown overnight as a starter culture and later used inoculate 10 L of LB media supplemented with 100 μg/mL ampicillin at 37° C. Protein expression was induced by the addition of 0.25 mM isopropyl-β-D-thiogalactopyranoside (IPTG) when optical density at […] of the culture was between 0.6 and 0.8 and cells were harvested after 16 to 18 h at 30° C. NS5B570n-Con1 was purified to homogeneity using a three-step protocol including subsequent column chromatography on Ni-NTA, SP-Sepharose HP and Superdex 75 resins.
Each 50 μL enzymatic reaction contained 20 nM RNA template derived from the complementary sequence of the Internal Ribosome Entry Site (cIRES), 20 nM NS5B570n-Con1 enzyme, 0.5 μCi of tritiated UTP (Perkin Elmer catalog no. TRK-412; specific activity: 30 to 60 Ci/mmol; stock solution concentration from 7.5×10^−5 M to 20.6×10^−6 M), 1 μM each ATP, CTP, and GTP, 40 mM Tris-HCl pH 8.0, 40 mM NaCl, 4 mM DTT (dithiothreitol), 4 mM MgCl2, and 5 μl of compound serial diluted in DMSO. Reaction mixtures were assembled in 96-well filter plates (cat #MADVN0B, Millipore Co.) and incubated for 2 h at 30° C. Reactions were stopped by addition of 10% final (v/v) trichloroacetic acid and incubated for 40 min at 4° C. Reactions were filtered, washed with 8 reaction volumes of 10% (v/v) trichloroacetic acetic acid, 4 reaction volumes of 70% (v/v) ethanol, air dried, and 25 μl of scintillant (Microscint 20, Perkin-Elmer) was added to each reaction well.
The amount of light emitted from the scintillant was converted to counts per minute (CPM) on a Topcount® plate reader (Perkin-Elmer, Energy Range: Low, Efficiency Mode Normal, Count Time: 1 min, Background Subtract: none, Cross talk reduction: Off).
Data was analyzed in Excel® (Microsoft) and ActivityBase® (Idbs®). The reaction in the absence of enzyme was used to determine the background signal, which was subtracted from the enzymatic reactions. Positive control reactions were performed in the absence of compound, from which the background corrected activity was set as 100% polymerase activity. All data was expressed as a percentage of the positive control. The compound concentration at which the enzyme-catalyzed rate of RNA synthesis was reduced by 50% (IC50) was calculated by fitting equation (i) to the data where“Y”
[formula] corresponds to the relative enzyme activity (in %), “% Min” is the residual relative activity at saturating compound concentration, “% Max” is the relative maximum enzymatic activity, “X” corresponds to the compound concentration, and “S” is the Hill coefficient (or slope).
Molecule `COc1ccc(-c2cc(C3(C#N)CC3)c(OC)c3cc(-c4ccc(NS(C)(=O)=O)cc4)cnc23)c(=O)[nH]1` [Compound I-33] returned a concentration for half-maximal inhibition (IC50) of 3.8 nM.

The molecule `COc1ccc(-c2cc(C3(C(F)F)CC3)c(OC)c3cc(-c4ccc(NS(C)(=O)=O)cc4)cnc23)c(=O)[nH]1` [Compound I-38] showed an IC50 of 0.6 nM.

On to `COc1c(C(C)(C)C)cc(-c2ccc[nH]c2=O)c2ncc(Br)cc12` [Compound I-16], for which the IC50 was 59 nM.

Turning to `COc1c(C2(C(F)F)CC2)cc(-n2ccc(=O)[nH]c2=O)c2ncc(-c3ccc(NS(C)(=O)=O)cc3)cc12` [Compound I-39, N-{4-[6-(1-Difluoromethyl-cyclopropyl)-8-(2,4-dioxo-3,4-dihydro-2H-pyrimidin-1-yl)-5-methoxy-quinolin-3-yl]-phenyl}-methanesulfonamide], the concentration for half-maximal inhibition (IC50) was found to be 3.4 nM. This IC50 is about 17-fold lower than that of the molecule before.

Consider `COc1c(C(C)(C)C)cc(N2CCC(=O)NC2=O)c2ncc(N3CC[C@H](CNS(C)(=O)=O)C3)cc12` [Compound I-31], for which the IC50 was 1.8 nM.

Molecule `COc1c(C(F)(F)F)cc(N2CCC(=O)NC2=O)c2ncc(-c3ccc(NS(C)(=O)=O)cc3)cc12` [Compound I-29, N-{4-[8-(2,4-Dioxo-tetrahydro-pyrimidin-1-yl)-5-methoxy-6-trifluoromethyl-quinolin-3-yl]-phenyl}-methanesulfonamide] gave an IC50 of 1.8 nM.

Molecule `COc1c(C(C)(C)C)cc(-c2ccc[nH]c2=O)c2ncc(-c3ccc(NS(C)(=O)=O)cc3)cc12` [Compound I-14, N-{4-[6-tert-Butyl-5-methoxy-8-(2-oxo-1,2-dihydro-pyridin-3-yl)-quinolin-3-yl]-phenyl}-methanesulfonamide] yielded an IC50 of 1 nM. This IC50 is about 1.8-fold lower than that of the molecule before.

Molecule `COc1c(C(C)(C)C)cc(-c2ccc(C)[nH]c2=O)c2ncc(-c3ccc(NS(C)(=O)=O)cc3)cc12` [Compound I-24] gave an IC50 of 1 nM.

Take `COc1c(C(C)(C)C)cc(-c2ccncc2F)c2ncc(-c3ccc(NS(C)(=O)=O)cc3)cc12` [Compound I-26]: the IC50 amounted to 1 nM.

On to `COc1c(C(C)(C)C)cc(-c2ccc[nH]c2=O)c2ncccc12` [Compound I-17], for which it took 38 nM to reach half-maximal inhibition (IC50).

Regarding `CC(C)(C)c1cc(-c2ccc[nH]c2=O)c2ncc(-c3ccc(NS(C)(=O)=O)cc3F)nc2c1` [Compound I-8], the IC50 worked out at 4 nM.

`Cc1nc2c(-c3ccc[nH]c3=O)cc(C(C)(C)C)cc2nc1-c1ccc(NS(C)(=O)=O)cc1` [Compound I-10, N-{4-[7-tert-Butyl-3-methyl-5-(2-oxo-1,2-dihydro-pyridin-3-yl)-quinoxalin-2-yl]-phenyl}-methanesulfonamide] displayed an IC50 of 21 nM.

Consider `COc1c(C(C)(C)C)cc(-n2ccc(=O)[nH]c2=O)c2ncc(N3CC[C@H](CNS(C)(=O)=O)C3)cc12` [Compound I-52, N-{(S)-1-[6-tert-Butyl-8-(2,4-dioxo-3,4-dihydro-2H-pyrimidin-1-yl)-5-methoxy-quinolin-3-yl]-pyrrolidin-3-ylmethyl}-methanesulfonamide], for which the IC50 was 3.5 nM. This IC50 lies about 6-fold lower than the previous one.

As to `COc1c(C(C)(C)C)cc(-c2ccc[nH]c2=O)c2ncc(-c3ccc(N)nc3)cc12` [Compound I-43, 3-[3-(6-Amino-pyridin-3-yl)-6-tert-butyl-5-methoxy-quinolin-8-yl]-1H-pyridin-2-one], the IC50 stood at 2.6 nM.

In the case of `COc1c(C(C)(C)C)cc(-c2ccc[nH]c2=O)c2ncc(N3CC(CNS(C)(=O)=O)C3)c(Cl)c12` [Compound I-22, N-{1-[6-tert-Butyl-4-chloro-5-methoxy-8-(2-oxo-1,2-dihydro-pyridin-3-yl)-quinolin-3-yl]-azetidin-3-ylmethyl}-methanesulfonamide], the IC50 stood at 44 nM.

`COc1c(C(C)(C)C)cc(-c2cc(F)c[nH]c2=O)c2ncc(-c3ccc(NS(C)(=O)=O)cc3)cc12` [Compound I-23]: it took 1 nM to reach half-maximal inhibition (IC50).

For the molecule `COc1ccc(-c2cc(C(C)(C)C)c(OC)c3cc(-c4ccc(NS(C)(=O)=O)cc4)cnc23)c(=O)[nH]1` [Compound I-34, N-{4-[6-tert-Butyl-5-methoxy-8-(6-methoxy-2-oxo-1,2-dihydro-pyridin-3-yl)-quinolin-3-yl]-phenyl}-methanesulfonamide], the half-inhibitory concentration (IC50) worked out at 10 nM.

On to `COc1c(CC(F)(F)F)cc(N2CCC(=O)NC2=O)c2ncc(-c3ccc(NS(C)(=O)=O)cc3)cc12` [Compound I-30, N-{4-[8-(Dioxo-tetrahydro-pyrimidin-1-yl)-5-methoxy-6-(2,2,2-trifluoro-ethyl)-quinolin-3-yl]-phenyl}-methanesulfonamide], for which the half-inhibitory concentration (IC50) turned out to be 17 nM.

As to `COc1c(CC(F)(F)F)cc(-c2ccc(C)[nH]c2=O)c2ncc(-c3ccc(NS(C)(=O)=O)cc3)cc12` [Compound I-53, N-{4-[5-Methoxy-8-(6-methyl-2-oxo-1,2-dihydro-pyridin-3-yl)-6-(2,2,2-trifluoro-ethyl)-quinolin-3-yl]-phenyl}-methanesulfonamide hydrobomide salt], the IC50 was 9.6 nM.

Consider `COc1ccc(-c2cc(CC(F)(F)F)c(OC)c3cc(-c4ccc(NS(C)(=O)=O)cc4)cnc23)c(=O)[nH]1` [Compound I-54, N-{4-[5-Methoxy-8-(6-methoxy-2-oxo-1,2-dihydro-pyridin-3-yl)-6-(2,2,2-trifluoro-ethyl)-quinolin-3-yl]-phenyl}-methanesulfonamide], for which the IC50 was 2.2 nM.

For `COc1c(C(C)(C)C)cc(-c2cc(Cl)c(C)[nH]c2=O)c2ncc(-c3ccc(NS(C)(=O)=O)cc3)cc12` [Compound I-42, N-{4-[6-tert-Butyl-8-(5-chloro-6-methyl-2-oxo-1,2-dihydro-pyridin-3-yl)-5-methoxy-quinolin-3-yl]-phenyl}-methanesulfonamide], half-maximal inhibition (IC50) required 0.6 nM.

Molecule `COc1c(C(C)(C)C)cc(-c2ccc(C)[nH]c2=O)c2ncc(OCCCNS(C)(=O)=O)cc12` [Compound I-45, N-{3-[6-tert-Butyl-5-methoxy-8-(6-methyl-2-oxo-1,2-dihydro-pyridin-3-yl)-quinolin-3-yloxy]-propyl}-methanesulfonamide] registered an IC50 of 11.8 nM.

As to `COc1c(C(F)(F)F)cc(-c2ccc(C)[nH]c2=O)c2ncc(-c3ccc(NS(C)(=O)=O)cc3)cc12` [Compound I-49, N-{4-[5-Methoxy-8-(6-methyl-2-oxo-1,2-dihydro-pyridin-3-yl)-6-trifluoromethyl-quinolin-3-yl]-phenyl}-methanesulfonamidehydrobromide], the 50% inhibitory concentration (IC50) is 0.7 nM.

In the case of `COc1c(C(C)(C)C)cc(-c2ccc(C)[nH]c2=O)c2ncc(CCCCNS(C)(=O)=O)cc12` [Compound I-44, N-{4-[6-tert-Butyl-5-methoxy-8-(6-methyl-2-oxo-1,2-dihydro-pyridin-3-yl)-quinolin-3-yl]-butyl}-methanesulfonamide], the IC50 amounted to 12.2 nM.

The molecule `COc1ccc(-c2cc(C(C)(C)C)cc3nc(-c4ccc(NS(C)(=O)=O)cc4F)cnc23)c(=O)[nH]1` [Compound I-11] yielded an IC50 of 1 nM.

With `COc1ccc(-c2cc(C(C)(C)C)c(OC)c3cc(N4CC[C@H](CNS(C)(=O)=O)C4)ccc23)c(=O)[nH]1` [Compound I-36, N-{(S)-1-[7-tert-Butyl-8-methoxy-5-(6-methoxy-2-oxo-1,2-dihydro-pyridin-3-yl)-naphthalen-2-yl]-pyrrolidin-3-ylmethyl}-methanesulfonamide], the IC50 stood at 8.4 nM. Against the preceding molecule, the IC50 is about 8.4-fold higher.

On to `COc1c(C(C)(C)C)cc(Br)c2ncc(-c3ccc(NS(C)(=O)=O)cc3)cc12` [Compound I-20], for which it took 225 nM to reach half-maximal inhibition (IC50).

In the case of `COc1c(CC(F)(F)F)cc(-n2ccc(=O)[nH]c2=O)c2ncc(-c3ccc(NS(C)(=O)=O)cc3)cc12` [Compound I-56, N-{4-[8-(2,4-Dioxo-3,4-dihydro-2H-pyrimidin-1-yl)-5-methoxy-6-(2,2,2-trifluoro-ethyl)-quinolin-3-yl]-phenyl}-methanesulfonamide], the IC50 came out at 38.5 nM.

As usually defined, the IC50 is the concentration at which inhibition is half-maximal. Low values mean greater potency, high ones weaker potency.
